{
  "source": "patent US20180169030A1",
  "about": "“DRUG CARRIER AND METHOD OF FABRICATING THE SAME” (priority 2016, published 2018)",
  "test_system": "Hepatoma cells",
  "conditions": "75 ppm boron-10",
  "description": "The drug carrier prepared in the above embodiments applied to the boron neutron capture therapy for cells was tested. The test method is described in detail below. Referring to FIG. 8, Tsing Hua Open-pool Reactor (THOR) 200 was used. An acrylic plate 204 was used as a carrier of 96-well plate 210. Hepatoma cells 206 were placed in the 96-well plate. Thermal neutrons 208 were used to irradiate the 96-well plate 210. An acrylic cube 202 was placed behind the carrier to slow down the thermal neutrons 208, so as to shorten the irradiation time.\nGroup I represents culture medium. Group J represents a boric acid solution containing 75 ppm of boron-10. Group K represents the drug carrier covering boric acid containing 75 ppm of boron-10. Group L represents the drug carrier without covering boric acid. The vertical axis is cell number percentage (%). The thermal neutron irradiation time was 27.67 minutes. After the thermal neutron irradiation, changes in cell numbers of each group were tested using the cell toxicity analysis kit (Wst-1 assay) after 24 hours.",
  "data": [
    {"substance": "boric acid", "values": [
      {"measurement": "part of mortality rate caused by toxicity of boric acid / by drug carrier (not by irradiation)", "result": 40, "unit": "%"},
      {"measurement": "part of mortality rate caused by irradiation of thermal neutron", "setting": "irradiation time 27.67 minutes", "result": 15, "unit": "%"},
      {"measurement": "mortality rate after irradiation of thermal neutron", "setting": "irradiation time 27.67 minutes, Wst-1 after 24 hours", "result": 55, "unit": "%"}
    ]}
  ]
}
